The values that follow are results of earlier work, collected in patent publication US20150328215A1, “STABLE AMORPHOUS RALTEGRAVIR POTASSIUM PREMIX AND PROCESS FOR THE PREPARATION THEREOF” (priority 2012, published 2015).

The conditions of data set [1]: water.
For data set [2] the following is noted: in vivo.

Regarding `Cc1nnc(C(=O)NC(C)(C)c2nc(C(=O)NCc3ccc(F)cc3)c(O)c(=O)n2C)o1` [Raltegravir], in data set [1], the aqueous solubility entry is “poor aqueous solubility”.
Regarding `Cc1nnc(C(=O)NC(C)(C)c2nc(C(=O)NCc3ccc(F)cc3)c([O-])c(=O)n2C)o1.[K+]` [Form 1], the “bioavailability compared with Raltegravir free base” value in data set [2] was “superior bioavailability”.
For the compound `Cc1nnc(C(=O)NC(C)(C)c2nc(C(=O)NCc3ccc(F)cc3)c([O-])c(=O)n2C)o1.[K+]` [potassium salt of Raltegravir, potassium N-(4-fluorobenzyl)-5-hydroxy-1-methyl-2-(1-methyl-1-{[(5-methyl-1,3,4-oxadiazol-2-yl)carbonyl]amino}ethyl)-6-oxo-1,6-dihydropyrimidine-4-carboxamide], the aqueous solubility entry in data set [1] was “significantly more soluble in water”.
